# Data from patent US20210386829A1, “COMPOSITIONS AND METHODS FOR MODULATING CGRP SIGNALING TO REGULATE INNATE LYMPHOID CELL INFLAMMATORY RESPONSES” (The Broad Institute, Inc., priority 2018, published 2021).
# Several values for one entry are separate records, joined by “and”; a condition that tells them apart may be missing. Identical values can stand only once.
# How the values were obtained:
# lung ILC2s = test: expression profiles (RNA-seq) of lung ILC2s cultured with CGRP, IL-33 or both; format: cell-based, mouse
# Method: RNA-Seq. For population (bulk) RNA-seq, sorted ILCs were lysed with RLT Plus buffer and RNA was extracted using the RNeasy Plus Mini Kit (Qiagen). Full-length RNA-seq libraries were prepared as previously described (Singer, M. et al. A Distinct Gene Module for Dysfunction Uncoupled from Activation in Tumor-Infiltrating T Cells. Cell 166, 1500-1511 e1509, doi:10.1016/j.cell.2016.08.052 (2016). and paired-end sequenced (75 bp×2) with a 150 cycle Nextseq 500 high output V2 kit.
# Culture of innate lymphoid cells. Sort-purified innate lymphoid cells (ILCs) were cultured under sterile conditions in complete medium in a humidified incubator at 37° C. and 10% CO2. ILCs were plated at a density of 3,000-5,000 ILCs per well in a 96 well round-bottom plate in cell culture medium with 20 ng/ml IL-7. Depending on the experiment, different combinations of 200 ng/ml IL-25, 200 ng/ml IL-33, 1 ug/ml NMU and 100 nM CGRP were added either at start or after overnight culture with 20 ng/ml IL-7. After 6 hours or 3 days, culture supernatant was removed and frozen at −20° C. and ILCs were lysed in Extraction Buffer (PicoPure RNA isolation Kit; Thermo Fisher Scientific), incubated at 42° C. for 30 min and frozen at −80° C.
# ILC2s = conditions: recent report (Sui et al., 2018); cited from earlier work
# [1] = tested on: IL-33-induced airway inflammation in RAG2 KO mice; test: IL-33-induced airway inflammation in RAG2 KO mice, intranasal co-administration of CGRP; format: in vivo, mouse; conditions: IL-33+CGRP vs IL-33 alone
# From the text: Animals. All experiments involving mice were approved by the Institutional Animal Care and Use Committee (IACUC) at Brigham and Women's Hospital. Mice were maintained in the animal facility at Brigham and Women's Hospital under specific pathogen-free conditions with food and water ad libitum and a 12-hour dark/light cycle. Mice were age- and sex-matched for experiments and were randomly assigned to experimental groups. C57BL/6J mice and RAG2 KO mice were purchased from the Jackson Laboratory. CGRP-GFP-hDTR mice were kindly provided by I. Chiu (Harvard Medical School, Boston).
# Cytokine-induced airway inflammation. Mice received nasally 500 ng IL-25, 500 ng IL-33, 20 ug NMU or 6.65 ug CGRP diluted in DPBS for three consecutive days. For nasal administration, mice were lightly anesthetized with Isoflurane (Cat #07-893-1389; Patterson Veterinary). For induction of inflammatory ILC2s, mice received intraperitoneally 500 ng IL-25 for three consecutive days. One day after the last treatment, mice were euthanized and perfused with 8 ml cold PBS via the right heart ventricle. After exposure of the trachea, a small incision was made at the top of the trachea and a curved gavage needle was inserted. Lungs were washed with 1.5 ml cold PBS via the needle and the retrieved bronchoalveolar lavage fluid was centrifuged at 1300 rpm for 5 min at 4 C. After centrifugation, the supernatant was frozen at −20° C. and the cell pellet was resuspended in 250 ul complete medium and stored on ice until flow cytometric analysis. The post-caval lung lobe was transferred into 10% buffered formalin and stored at room temperature until paraffin embedding for histological analysis. The other lung lobes were dissociated using the lung dissociation kit (Cat #130-095-927; Miltenyi Biotec) and automated tissue dissociator (gentleMACS; Miltenyi Biotec) as described above with the adjustment that after running program lung_02, the single cell suspension was centrifuged at 1300 rpm for 5 min at 4° C. and 1 ml of the supernatant was frozen at −20° C. Single-cell suspension was resuspended in complete cell culture medium and stored on ice until further processing.
# For cell counts, lung cells were transferred into FACS tubes and stained with 7AAD. Precision Count Beads (Cat #424902; BioLegend) were added according to manufacturer's instructions. Cells and beads were acquired on a BD LSRFortessa (BD Biosciences) and cell numbers were calculated based on number of acquired live (7AAD−) cells and number of acquired beads.
# For flow cytometric analysis, lung cells were transferred into a 96 well V-bottom plate and stained with surface antibodies for 20 min at 4° C. in the dark. Cells were washed twice with DPBS containing 2% fetal bovine serum and transferred into 1.2 ml tubes for analysis by flow cytometry. For intracellular cytokine staining, cells were incubated in complete cell culture medium with 50 ng/ml phorbol 12-myristate 13-acetate (Sigma-Aldrich), 1 uM ionomycin (Sigma-Aldrich) and GolgiStop (Cat #554724; BD Biosciences) in a humidified incubator at 37° C. and 10% CO2. After 5 hours, cells were transferred into 96 well V-bottom plate, stained with Fixable Viability Dye eFluor 506 (Cat #65-0866-14; Thermo Fisher) and surface antibodies for 20 min at 4° C. in the dark and washed twice with DPBS containing 2% fetal bovine serum. Then, cells were incubated with BD Cytofix/Cytoperm Buffer (Cat #51-2090KZ; BD Biosciences) for 20 min, followed by a wash with BD Perm/Wash Buffer (Cat #51-2091KZ; BD Biosciences). Subsequently, cells were incubated with antibodies targeting intracellular proteins diluted in BD Perm/Wash Buffer for 20 min and after two wash steps, transferred into 1.2 ml tubes for analysis by flow cytometry. […]
substance,measurement,setting,value
"CGRP: neuropeptide calcitonin gene-related peptide (encoded by Calca), ligand of the Ramp1/Calcrl receptor; given at 100 nM in vitro, 6.65 ug nasally",differentially expressed genes of CGRP alone shared with CGRP+IL-33 treatment,lung ILC2s; CGRP alone vs CGRP+IL-33,112 genes
same,"genes associated with cell cycle progression (Mki67, Birc5, Kdm8)",lung ILC2s; CGRP treatment alone,down-regulated
same,number of differentially expressed genes,lung ILC2s; CGRP treatment alone (IL-7+CGRP vs IL-7),331 genes
same,Il13 and Arg1 expression (effector ILC2 genes),lung ILC2s; IL-33+CGRP vs IL-33,significantly down-regulated
same,"genes associated with negative regulation of effector T cell responses (Pdcd1, Havcr2, Lilrb4, Entpd1, Tnfrsf18, FoxP3, Nfil3, Nr3c1, Fgl2)",lung ILC2s; IL-33+CGRP vs IL-33,upregulated
same,number of differentially expressed genes up-regulated in the presence of CGRP,"lung ILC2s; IL-33+CGRP vs IL-33, 3 days",635 genes
same,number of differentially expressed genes,"lung ILC2s; IL-33+CGRP vs IL-33, 3 days, P<0.05, fold change >1.5",> 900 genes and 946 genes
same,Ramp3 and Calca expression in ILC2s,"lung ILC2s; with CGRP, confirmed by qPCR",upregulated
same,IL-5 and amphiregulin (Areg) production by ILC2s,ILC2s,enhanced
same,Il5 and Il13 transcripts in lung tissue,[1],significantly reduced
same,concentration of IL-5 and IL-13 protein in lung homogenates and BALF,[1],significantly reduced
same,eosinophil numbers in lung tissue and BALF,[1],significantly reduced
same,frequency of IL-5-positive ILCs,[1],no difference
same,frequency of IL-13-positive ILC2s,[1],significantly lower
same,total numbers of lung ILCs,[1],marked reduction
same,frequency of lung ILCs,"[1]; intranasal, three consecutive days",non-significant trend towards a reduced frequency
